Like-named read-outs stand apart in the source and are kept apart here. Each block holds one compound with its values, some of them ahead of it.
Legend:
[1] = tested on: fibroblasts from human hypertrophic scars; details: cited from earlier work; for proliferation of fibroblasts derived from hypertrophic scars: compound alone; for effect on AT II-stimulated increase in DNA synthesis: cultured fibroblasts, stimulation with AT II
[2] = Solubility of the purified solid in organic solvents; format: physicochemical
Experimental: (§1) 4 g of captopril in 15 ml of toluene with 0.5 g of Novozyme lipase B from Candida antartica was stirred in a 100 ml round bottom flask fitted with a drying tube (containing 3 Å molecular sieves and indicator silica gel) for 48 hours at 110° C. using a hotplate and magnetic stirrer. 50 ml of THF was then added and the enzyme was removed by filtration.
as §1, with “captopril lactone” for “captopril”

[3] = tested on: guinea pig gingival fibroblast cells; details: cited from earlier work
hypertrophied scars = details: topical application, animal model of pathologic scarring; cited from earlier work
keloid scar = details: cited from earlier work
[4] = tested on: experimental hepatic fibrosis; details: rats; cited from earlier work
dermal healing = details: by reducing fibrosis and improving collagen remodelling; cited from earlier work
[5] = phenytoin- or nifedipine-induced gingival fibroblasts

Compound: Cc1cc(Cn2cnc3c2C[C@@H](C(=O)O)N(C(=O)C(c2ccccc2)c2ccccc2)C3)ccc1N(C)C [PD123319]
proliferation of fibroblasts derived from hypertrophic scars [1]: did not influence
effect on AT II-stimulated increase in DNA synthesis [1]: augmented

solubility in THF [2]: freely soluble
solubility in chloroform [2]: freely soluble
solubility in methanol [2]: freely soluble
Compound: C[C@@H]1CSC(=O)[C@@H]2CCCN2C1=O [captopril lactone]

solubility in THF [2]: freely soluble
solubility in chloroform [2]: freely soluble
solubility in methanol [2]: freely soluble
Compound: C[C@H](CS)C(=O)N1CCC[C@H]1C(=O)O [captopril]
development of induced proliferation [3, 5]: inhibited the development of proliferation
immunostaining intensities of immunoreactive angiotensin II [3, 5]: reduced these enhanced immunostaining intensities to control levels
formation of hypertrophied scars (hypertrophied scars): prevented the formation of hypertrophied scars

Compound: CCOC(=O)[C@H](CCc1ccccc1)N[C@@H](C)C(=O)N1CCC[C@H]1C(=O)O [enalapril]
keloid scar outcome (keloid scar; first patient (co-author), 10 mg once daily): rapidly improved
keloid scar outcome (keloid scar; person with diabetes, same low dose, after six months of therapy): marked improvement

Compound: CCC[C@H](N[C@@H](C)C(=O)N1[C@H](C(=O)O)C[C@@H]2CCCC[C@@H]21)C(=O)OCC [perindopril]
progression of experimental hepatic fibrosis [4]: ameliorate progression

Compound: O=C1NC(=O)C(c2ccccc2)(c2ccccc2)N1 [phenyloin]
proliferation of gingival fibroblast cells ([3]; guinea pig gingival fibroblast cells): induced proliferation

Compound: CCCCC(=O)N(Cc1ccc(-c2ccccc2-c2nnn[nH]2)cc1)[C@H](C(=O)O)C(C)C [valsartan]
progression of experimental hepatic fibrosis [4]: ameliorate progression
proliferation of fibroblasts derived from hypertrophic scars [1]: did not influence
effect on AT II-stimulated increase in DNA synthesis [1]: inhibited

Compound: Ang(1-7): angiotensin peptide Ang(1-7) (DRVYIHP; Angiotensin 1-7; UniProt P01019 25-31, looked up, fragment)
dermal healing following wounding (dermal healing): accelerate dermal healing
